From article PMC6910946, “Multiple roles of Bet v 1 ligands in allergen stabilization and modulation of endosomal protease activity” (Allergy, 2019)
Like-named read-outs stand apart in the source and are kept apart here.

How the values were obtained:
Bet_v_1 [1] = biological target: T1, Bet_v_1 (Betula pendula, UniProt P15494); assay: Surface acoustic wave (SAW) interaction studies, determination of Kd; assay type: binding
T1 construct: made in house
T1 sequence (P15494 1-160): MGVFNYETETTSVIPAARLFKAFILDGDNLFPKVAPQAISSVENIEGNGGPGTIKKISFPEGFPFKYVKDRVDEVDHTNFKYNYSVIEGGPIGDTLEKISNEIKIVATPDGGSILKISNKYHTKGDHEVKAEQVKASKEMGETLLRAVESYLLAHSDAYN
Description: (§1) Surface acoustic wave (SAW) technology and NMR spectroscopy were used to observe the interaction of Bet_v_1 with the selected compounds, including determination of the dissociation constant (K d). The influence of ligand binding on the secondary structure elements and the thermal stability of Bet_v_1 was monitored using circular dichroism (CD, JASCO J‐815 spectropolarimeter, Jasco) and Fourier transform infrared (FTIR) spectroscopy (Tensor II FTIR system, Bruker Optics Inc). A detailed description of these methods is available (Appendix [Link], [Link]).
To assess the interactions between Bet_v_1 and Q3OS, DOC, PPE1, LTA, or LPS, we determined the dissociation constants (K d) using SAW binding assays (Table 1, Figure S1), a more quantitative approach than previously described qualitative assays.11, 25 In addition, the LPS‐substructure Kdo2‐Lipid A (Kdo2) was used for binding studies, due to its more homogenous structure but similar immune stimulatory activity when compared to native LPS.
For the determination of the affinity constant Kd, we used surface acoustic wave (SAW) technology. The interaction of the six ligands with Bet v 1 was investigated using a sam® 5BLUE biosensor instrument (Nanotemper, Munich, Germany). Bet v 1 was immobilized in PBS on the surface of a SAW CM-Dextran 3D sensor chip. […] For calculating the affinity constant Kd, different concentrations of the ligands dissolved in a 5 mM sodium phosphate buffer, pH 7.4, were applied to the Bet v 1-coupled chip. Depending on the ligand, the concentration range of the injected ligand varied between 5 µM and 500 µM. For the removal of residual ligand between the sample injections, the chip was washed with regeneration buffer (10 mM citric acid buffer, pH 2.8). The recorded SAW phase changes were analyzed using the software TraceDrawer 1.7 (Ridgeview Instruments, Uppsala, Sweden). The affinity constant Kd was calculated by kinetic evaluation and affinity/EC50 estimation. For kinetic evaluation, an OneToOne curve fit was chosen to match the raw data. Experiments were performed with two coated chips in duplicate, and the coupling efficiency was evaluated using a mouse monoclonal anti-Bet v 1 antibody.

[2] = biological target: T2, Bet v 1 / human cathepsin S (Betula pendula, UniProt P15494); assay: Bet v 1 in vitro proteolytic degradation assay with cathepsin S; assay type: biochemical; settings: Bet v 1 20 µM, ligand 100 µM, cathepsin S 1 µM, pH 5.0, 0-24 h, SDS-PAGE
T2 construct: made in house
T2 sequence (P15494 2-160 limits assumed): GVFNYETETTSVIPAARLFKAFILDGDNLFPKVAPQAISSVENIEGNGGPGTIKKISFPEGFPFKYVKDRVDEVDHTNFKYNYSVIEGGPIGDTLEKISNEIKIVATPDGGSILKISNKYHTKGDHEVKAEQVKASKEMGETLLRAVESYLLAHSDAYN
Experimental: (§2) The endolysosomal degradation assay was performed with ligand‐bound (either DOC, PPE1, or Q3OS in 10× molar excess) and Bet_v_1 without ligands (apo‐Bet_v_1) as previously described.21 Recombinant human cathepsin S and human legumain were used in proteolytic degradation assays. Experimental details are described in the Appendix [Link], [Link].
(§3) Recombinant human cathepsin S and human legumain were heterologously expressed and purified as described previously.^9,10 Bet v 1 (20 µM) was incubated with ligand (100 µM) in digestion buffer (0.1 M sodium acetate, pH 5.0, 0.1 M sodium chloride, 5 mM EDTA, and 2 mM DTT) at room temperature prior to the addition of cathepsin S (1 µM) or legumain (2 µM). […] At each time point, the reaction was halted by the addition of E64 (for cathepsin S) or YVAD-CMK (for legumain) at a final concentration of 50 µM, and analyzed by SDS-PAGE. Control reactions without the addition of protease were performed. The generated peptides were analyzed using mass spectrometry.

Bet v 1 / human legumain = biological target: T3, Bet v 1 / human legumain (Betula pendula, UniProt P15494); assay: Bet v 1 in vitro proteolytic degradation assay with legumain; assay type: biochemical; settings: Bet v 1 20 µM, ligand 100 µM, legumain 2 µM, pH 5.0, 0-24 h, SDS-PAGE
T3 construct: made in house
T3 sequence (P15494 2-160 limits assumed): T2 sequence (P15494 2-160 limits assumed)
Experimental: as §2, §3

Bet_v_1 [3] = biological target: T1, Bet_v_1; settings: read-out: K d of ANS, previously published; cited from earlier work
Bet_v_1 [4] = biological target: T1, Bet_v_1; assay: NMR spectroscopy (1H-15N HSQC) binding confirmation; settings: for NMR (binding confirmation, K d): 15N-labeled Bet v 1, direct measurement of Kd prevented by intermediate exchange; for specific binding to Bet v 1 (1H-15N HSQC spectra): absence vs presence of compound
Description: as §1
To validate the interactions determined by SAW, we used NMR spectroscopy to test the specific binding of PPE1, LTA, LPS, and Kdo2 to Bet_v_1 (Table 1, Figure S2). […] The commercially available PPA1 was used as a substitute for PPE1 to identify the phytoprostane binding site(s).
The NMR data were acquired with either a 600 or 800 MHz Agilent DD2 spectrometer with a cryogenically cooled probe using the pulse sequence gNhsqc. Bet v 1 assignments were taken from.^2 The experiments were performed under the following conditions: LTA: 45 µM Bet v 1 and 300 µM LTA in PBS, 10% ^2H2O, 60 µM DSS; PPE1: 25 µM Bet v 1 and 2 µM PPE1 in PBS, 5% ^2H-(d6) DMSO, 10% ^2H2O, 60 µM DSS; PPA1: 100 µM Bet v 1 and 302 µM PPA1 (Cayman Chemical, MI, USA) in PBS, 8.7% ^2H-(d6) DMSO, 10% ^2H2O, 60 µM DSS; LPS: 100 µM Bet v 1 and 400 µM LPS in PBS pH 7.4, 10% ^2H2O, 60 µM DSS. Kdo2: 100 µM Bet v 1 and 422 µM Kdo2 in PBS pH 7.0, 10% ^2H2O, 8.6% ^2H-(d6) DMSO, 60 µM DSS.

cathepsin S = biological target: T4, cathepsin S (Homo sapiens, UniProt P25774); assay: Enzymatic activity assay, fluorogenic substrate Z-VVR-AMC; assay type: biochemical
T4 construct: made in house
Experimental: To evaluate the influence of Bet_v_1 ligands on cathepsin S and legumain activities, 10 nmol/L of protease was incubated with 100 µmol/L of ligand (unless otherwise stated) and 50 µmol/L of fluorogenic substrate in digestion buffer (0.1 mol/L sodium acetate pH 5.0, 0.1 mol/L sodium chloride, 5 mmol/L EDTA, and 2 mmol/L DTT), as described in the Appendix [Link], [Link]. The effect of birch pollen extract (BPE) (20‐200 µg/mL) on the cathepsin S and legumain activities was assessed in parallel. The inhibitory effect of PPE1 was assessed by replacing DTT with 0.5 mmol/L TCEP. Activities of recombinant rat cathepsin B (provided by Dr Lukas Mach) and papain (Merck) at 10 nmol/L were assayed using Z‐FR‐AMC (Bachem) as a fluorogenic substrate.
For the detection of cathepsin or legumain activities in the microsomal fraction, 8 µg of microsomal extract was incubated with 50 µM fluorogenic substrate with or without inhibitor in assay buffer (100 mM citrate pH 4.8 and 2 mM DTT). The enzymatic reactions were carried out in a 50 µL reaction volume in a 96-half-well black flat bottom assay plate (Corning Inc., Corning, NY, USA) at 37°C. The fluorescence signal was recorded using a Tecan Infinite-200 plate reader (Tecan, Männedorf, Switzerland) at an excitation wavelength of 380 nm and emission wavelength of 460 nm for 15 min of continuous measurement with a 30-s interval reading. The fluorogenic substrates used for cathepsin S and legumain were Z-VVR-AMC and Z-AAN-AMC (Bachem, Bubendorf, Switzerland), respectively. The inhibitors used for cathepsin S and legumain were Z-FL-COCHO (Sigma-Aldrich, CA, USA) and Ac-YVAD-CMK (Bachem), respectively^11.

Bet_v_1 [5] = biological target: T1, Bet_v_1; assay: LPS pull-down assay; assay type: binding, Betula verrucosa; settings: LPS immobilized on Strep‐Tactin Sepharose beads
Experimental: To investigate whether Bet v 1 binds LPS, a pull-down assay using biotinylated ultrapure E. coli O111:B4 LPS (InvivoGen, San Diego, CA, USA) was performed as previously described.^3 In short, biotinylated LPS was immobilized on Strep-Tactin Sepharose beads (IBA Lifesciences, Göttingen, Germany) and incubated with Bet v 1 for 20 min at room temperature. Unbound protein was washed off and beads were analyzed by SDS-PAGE. As control, the individual components (Bet v 1, biotinylated LPS and Strep-Tactin Sepharose beads), and Bet v 1+beads to exclude unspecific binding, were analyzed.

[6] = Bet v 1 immobilized on chip, ligands in 5 mM sodium phosphate buffer pH 7.4, read-out: Binding affinity K d (SAW)
[7] = Fig. S1 sensorgrams, read-out: Kd (SAW, Fig. S1)

T4 sequence (P25774 115-331): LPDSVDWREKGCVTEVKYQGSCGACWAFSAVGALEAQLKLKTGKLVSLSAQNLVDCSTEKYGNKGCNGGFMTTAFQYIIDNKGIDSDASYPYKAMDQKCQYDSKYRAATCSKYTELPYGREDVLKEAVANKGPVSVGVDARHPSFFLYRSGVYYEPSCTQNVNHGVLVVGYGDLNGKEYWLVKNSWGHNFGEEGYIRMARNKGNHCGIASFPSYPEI

Compound | processing (degradation) of Bet v 1 by cathepsin S [2] | processing (degradation) of Bet v 1 by legumain (Bet v 1 / human legumain) | Kd (Bet_v_1 [1]; [6]) [µM] | Kd (Bet_v_1 [1]; [7]) [µM] | NMR (binding confirmation, K d) (Bet_v_1 [4]) | specific binding to Bet v 1 (1H-15N HSQC spectra) (Bet_v_1 [4]) | also measured
O=S(=O)(O)c1cccc2cccc(Nc3ccccc3)c12 [ANS, 8‐anilinonaphthalene‐1‐sulfonic acid] | no detectable | no detectable | – | – | – | – | Kd (Bet_v_1 [1]; Binding affinity K d (SAW), Bet v 1 immobilized on chip, ligands in 5 mM sodium phosphate buffer pH 7.4): 32.7 µM; Kd (Bet_v_1 [1]; Kd (SAW, Fig. S1), Fig. S1 sensorgrams): 32.7 µM; Kd (Bet_v_1 [3]): 18.5 µM
CCCCCCCCCCCCCC(=O)O[C@H](CCCCCCCCCCC)CC(=O)O[C@@H]1[C@@H](NC(=O)C[C@@H](CCCCCCCCCCC)OC(=O)CCCCCCCCCCC)[C@H](OC[C@H]2O[C@H](OP(=O)(O)O)[C@H](NC(=O)C[C@H](O)CCCCCCCCCCC)[C@@H](OC(=O)C[C@H](O)CCCCCCCCCCC)[C@@H]2O)O[C@H](CO[C@]2(C(=O)O)C[C@@H](O[C@]3(C(=O)O)C[C@@H](O)[C@@H](O)[C@@H]([C@H](O)CO)O3)[C@@H](O)[C@@H]([C@H](O)CO)O2)[C@H]1OP(=O)(O)O [Kdo2, Kdo2‐Lipid A] | – | – | 380 | 380 | No significant interactions | No significant interactions | –
O=C1C[C@@H](c2ccc(O)cc2)Oc2cc(O)cc(O)c21 [Naringenin, naringenin] | minor | minor | – | – | – | – | –
CCC(O)/C=C/C1C(O)CC(O)C1CCCCCCCC(=O)O (stereo not shown) [PPF1, F1‐phytoprostanes] | – | – | 2.4 | – | – | – | cathepsin S activity with phytohormones structurally related to PPE1 (cathepsin S; 0.1 mmol/L, 15 min (Figure 4B)): did not inhibit
CCCCCCCCCCCCOS(=O)(=O)[O-].[Na+] [SDS, sodium dodecyl sulfate] | significantly accelerated | significantly accelerated | – | – | – | – | cathepsin S fluorogenic activity (cathepsin S; 10 nmol/L protease, 100 µmol/L ligand, 50 µmol/L substrate, pH 5.0, 2 mmol/L DTT (Figure 3A)): reduced the cleavage of fluorogenic substrates
lipopolysaccharide [LPS] | – | – | 185 | 185 | No significant interactions | No significant interactions | binding of Bet v 1 to biotinylated LPS (pull-down) (Bet_v_1 [5]): do not specifically bind
lipoteichoic acid [LTA] | – | – | 200 | 200 | No significant interactions | No significant interactions | –
